Consider eight compounds from paper PMC11116414, “Impact of secretin receptor homo-dimerization on natural ligand binding” (Nature Communications, 2024).

The target of test [1] is T1, SecR(G264A,I268A) (Homo sapiens, UniProt P47872, G264A/I268A).
T1 construct: expressed in transfected cells; membranes isolated from these cells
Nature of the test: Fluorescence anisotropy of receptor-bound probes, mutant SecR. The settings on record: membranes, 50 nM probe, mean ± S.E.M., n = 3. On the procedure: (§1) Incubations were terminated by separating receptor-bound ligand from free ligand using centrifugation at 25,000 × g for 10 min at 4 °C. The sample pellet was washed again with ice-cold KRH medium and resuspended in KRH medium for fluorescence measurements. The samples were excited at 481 nm and the emission was collected at 521 nm, with a bandwidth of 5 nm at an integration rate of 0.5 nm/s, and fluorescence intensities were collected by constant wavelength single point analysis using SPEX Fluoromax 3 (Horiba Scientific, Piscataway, NJ) with Origin version 8.1.

Test [2] concerns the target T2, WT SecR (Homo sapiens, UniProt P47872).
T2 construct: expressed in transfected cells; membranes isolated from CHO-SecR cells
Nature of the test: KI collisional fluorescence quenching of receptor-bound probes, WT SecR. The following applies: KI quencher, mean ± S.E.M., n = 3. On the procedure: as §1
(§2) Fluorescence collisional quenching studies were performed using the hydrophilic quenching reagent, potassium iodide (KI), as described previously. Fluorescence intensities of receptor-bound probes were collected by exciting samples at 481 nm using Fluoromax-3 spectrofluorometer single point measurement by Origin version 8.1. […] The effect of ionic strength was determined by measuring fluorescence intensities in potassium chloride. […] The Stern–Volmer quenching constant, KSV, was calculated from the slope of Fo/F as a function of the quencher concentration [I^−].

Test [3] has as its target T1, SecR(G264A,I268A). Nature of the test: KI collisional fluorescence quenching of receptor-bound probes, mutant SecR. The settings on record: KI quencher, mean ± S.E.M., n = 3. As to the method:
as §1, §2

Test [4] concerns the target T2, WT SecR. Nature of the test: Fluorescence anisotropy of receptor-bound probes, WT SecR. The following applies: for Anisotropy: SecR WT, membranes, 50 nM probe, mean ± S.E.M., n = 3; for anisotropy, + GppNHp vs control, in words: WT SecR, 20 and 37 °C. On the procedure: as §1
For test [5], the target named is Cys7-[Tyr10]secretin(1-27) agonist probe. Nature of the test: cysteine trapping, autoradiograph densitometry. The settings on record: intact COS-1 cells, non-reducing 10% SDS-PAGE, n = 3, read off a plot.
Test [6] addresses Cys6-[Tyr10]secretin(1-27) agonist probe. Nature of the test: cysteine trapping, autoradiograph densitometry. The following applies: intact COS-1 cells, non-reducing 10% SDS-PAGE, n = 5, read off a plot.
For test [7], the target named is Cys2-[Tyr10]secretin(1-27) agonist probe. Nature of the test: cysteine trapping, autoradiograph densitometry. The following applies: ECL2 series; intact COS-1 cells; non-reducing 10% SDS-PAGE; n = 4; read off a plot.
[8] abbreviates: +GppNHp (uncoupled state, 10 µM).
The mark [9] stands for this setting: -GppNHp (active state), 50 nM probe, ex 481/em 521 nm.
Where [10] appears, read: control, 20 °C, KRH pH 7.4, ex 481 nm.
The mark [11] stands for this setting: control, 37 °C, KRH pH 7.4, ex 481 nm.

T1 sequence (P47872 23-440 G264A/I268A): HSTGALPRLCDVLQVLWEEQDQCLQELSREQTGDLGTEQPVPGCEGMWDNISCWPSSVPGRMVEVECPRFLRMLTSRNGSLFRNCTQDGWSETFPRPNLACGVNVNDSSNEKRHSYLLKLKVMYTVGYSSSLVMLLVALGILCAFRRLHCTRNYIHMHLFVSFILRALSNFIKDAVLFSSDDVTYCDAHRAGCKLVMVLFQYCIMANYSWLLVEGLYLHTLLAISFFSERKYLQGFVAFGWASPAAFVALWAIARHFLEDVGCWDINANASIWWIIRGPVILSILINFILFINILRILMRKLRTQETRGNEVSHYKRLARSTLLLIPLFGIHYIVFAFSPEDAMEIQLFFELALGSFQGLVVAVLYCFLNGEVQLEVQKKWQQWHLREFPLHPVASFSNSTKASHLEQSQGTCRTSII
T2 sequence (P47872 23-440): as the sequence (P47872 23-440 G264A/I268A) above, with A242G, A246I counted along it

Regarding `CC(C)C[C@H](NC(=O)CNC(=O)[C@H](CCC(N)=O)NC(=O)[C@H](CC(C)C)NC(=O)[C@H](CC(C)C)NC(=O)[C@H](CCCNC(=N)N)NC(=O)[C@H](CCC(N)=O)NC(=O)[C@H](CC(C)C)NC(=O)[C@H](CCCNC(=N)N)NC(=O)[C@H](C)NC(=O)CNC(=O)[C@H](CCC(=O)O)NC(=O)[C@H](CCCNC(=N)N)NC(=O)[C@H](CCCCNC(=O)c1ccc(-c2c3ccc(=N)c(S(=O)(=O)O)c-3oc3c(S(=O)(=O)O)c(N)ccc23)c(C(=O)O)c1)NC(=O)[C@H](CCCNC(=N)N)NC(=O)[C@H](CO)NC(=O)[C@H](CC(C)C)NC(=O)[C@H](CCC(=O)O)NC(=O)[C@H](CO)NC(=O)[C@@H](NC(=O)[C@H](Cc1ccccc1)NC(=O)[C@@H](NC(=O)CNC(=O)[C@H](CC(=O)O)NC(=O)[C@H](CO)NC(=O)[C@@H](N)Cc1c[nH]cn1)[C@@H](C)O)[C@@H](C)O)C(=O)N[C@H](C(N)=O)C(C)C` [(Lys^13-Alexa^488)Sec], the Anisotropy amounted to 0.20 ± 0.01 on SecR(G264A,I268A) [1] (+GppNHp (10 µM), 20 °C); 0.11 ± 0.01 at SecR(G264A,I268A) [1] (+GppNHp (10 µM), 37 °C); 0.18 ± 0.02 on SecR(G264A,I268A) [1] (control, 20 °C); 0.11 ± 0.01 on SecR(G264A,I268A) [1] (control, 37 °C); 0.20 ± 0.02 on WT SecR [4] (+GppNHp (10 µM), 20 °C); 0.12 ± 0.01 on WT SecR [4] (+GppNHp (10 µM), 37 °C). Moreover, the results for the Anisotropy at WT SecR [4] (setting [10]) and on WT SecR [4] (setting [11]) were 0.14 ± 0.01 and 0.06 ± 0.01, respectively. In addition, the “Stern-Volmer quenching constant (Ksv)” value was determined as 3.9±02 at WT SecR [2] (setting [8]), 7.9±0.6 at WT SecR [2] (setting [9]), 4.5±0.9 on SecR(G264A,I268A) [3] (setting [8]) and 5.2±0.4 on SecR(G264A,I268A) [3] (-GppNHp (active state)). The “anisotropy, + GppNHp vs control, in words” value at WT SecR [4] is reported as “higher anisotropy after treatment with GppNHp than the control state”.
For `CC(C)C[C@H](NC(=O)CNC(=O)[C@H](CCC(N)=O)NC(=O)[C@H](CC(C)C)NC(=O)[C@H](CCCCNC(=O)c1ccc(-c2c3ccc(=N)c(S(=O)(=O)O)c-3oc3c(S(=O)(=O)O)c(N)ccc23)c(C(=O)O)c1)NC(=O)[C@H](CCCNC(=N)N)NC(=O)[C@H](CCC(N)=O)NC(=O)[C@H](CC(C)C)NC(=O)[C@H](CCCNC(=N)N)NC(=O)[C@H](C)NC(=O)CNC(=O)[C@H](CCC(=O)O)NC(=O)[C@H](CCCNC(=N)N)NC(=O)[C@H](CC(C)C)NC(=O)[C@H](CCCNC(=N)N)NC(=O)[C@H](CO)NC(=O)[C@H](CC(C)C)NC(=O)[C@H](CCC(=O)O)NC(=O)[C@H](CO)NC(=O)[C@@H](NC(=O)[C@H](Cc1ccccc1)NC(=O)[C@@H](NC(=O)CNC(=O)[C@H](CC(=O)O)NC(=O)[C@H](CO)NC(=O)[C@@H](N)Cc1c[nH]cn1)[C@@H](C)O)[C@@H](C)O)C(=O)N[C@H](C(N)=O)C(C)C` [(Lys^22-Alexa^488)Sec], the Anisotropy at SecR(G264A,I268A) [1] (+GppNHp (10 µM), 20 °C) was determined as 0.19 ± 0.01; on SecR(G264A,I268A) [1] (+GppNHp (10 µM), 37 °C), 0.12 ± 0.01; at SecR(G264A,I268A) [1] (control, 20 °C), 0.18 ± 0.01; at SecR(G264A,I268A) [1] (control, 37 °C) it was 0.10 ± 0.01; on WT SecR [4] (+GppNHp (10 µM), 20 °C), 0.20 ± 0.02; at WT SecR [4] (+GppNHp (10 µM), 37 °C) it was 0.12 ± 0.01. Also, the Anisotropy on WT SecR [4] (setting [10]) is 0.14 ± 0.01; at WT SecR [4] (setting [11]) it was 0.06 ± 0.01. Also, the “Stern-Volmer quenching constant (Ksv)” value is recorded as 4.5±0.2 at WT SecR [2] (setting [8]), 8.9±1.0 on WT SecR [2] (setting [9]), 4.3±0.2 at SecR(G264A,I268A) [3] (setting [8]) and 6.1±0.3 on SecR(G264A,I268A) [3] (-GppNHp (active state)). For the same compound, at WT SecR [4], the “anisotropy, + GppNHp vs control, in words” value was “higher anisotropy after treatment with GppNHp than the control state”.
As to `CC(C)C[C@H](NC(=O)CNC(=O)[C@H](CCC(N)=O)NC(=O)[C@H](CC(C)C)NC(=O)[C@H](CC(C)C)NC(=O)[C@H](CCCNC(=N)N)NC(=O)[C@H](CCC(N)=O)NC(=O)[C@H](CC(C)C)NC(=O)[C@H](CCCNC(=N)N)NC(=O)[C@H](C)NC(=O)CNC(=O)[C@H](CCC(=O)O)NC(=O)[C@H](CCCNC(=N)N)NC(=O)[C@H](CC(C)C)NC(=O)[C@H](CCCNC(=N)N)NC(=O)[C@H](CO)NC(=O)[C@H](CC(C)C)NC(=O)[C@H](CCC(=O)O)NC(=O)[C@H](CO)NC(=O)[C@@H](NC(=O)[C@H](Cc1ccccc1)NC(=O)[C@@H](NC(=O)CNC(=O)[C@H](CC(=O)O)NC(=O)[C@H](CO)NC(=O)[C@@H](N)Cc1c[nH]cn1)[C@@H](C)O)[C@@H](C)O)C(=O)N[C@H](C(=O)NCC(=O)N[C@@H](CSC1CC(=O)N(CCCCCNC(=O)c2ccc(-c3c4ccc(=N)c(S(=O)(=O)O)c-4oc4c(S(=O)(=O)O)c(N)ccc34)c(C(=O)O)c2)C1=O)C(N)=O)C(C)C` (stereo partly drawn) [Sec-Gly^28-(Cys^29-Alexa^488)], the Anisotropy was 0.15 ± 0.01 at SecR(G264A,I268A) [1] (+GppNHp (10 µM), 20 °C); 0.1 ± 0.01 at SecR(G264A,I268A) [1] (+GppNHp (10 µM), 37 °C); 0.13 ± 0.01 at SecR(G264A,I268A) [1] (control, 20 °C); 0.09 ± 0.01 on SecR(G264A,I268A) [1] (control, 37 °C); 0.13 ± 0.01 at WT SecR [4] (+GppNHp (10 µM), 20 °C); 0.08 ± 0.01 at WT SecR [4] (+GppNHp (10 µM), 37 °C). In addition, the results for the Anisotropy at WT SecR [4] (setting [10]) and at WT SecR [4] (setting [11]) were 0.13 ± 0.01 and 0.08 ± 0.01, respectively. The “Stern-Volmer quenching constant (Ksv)” value on WT SecR [2] (setting [8]) was determined as 4.9±0.4; at WT SecR [2] (setting [9]), 6.2±0.7; at SecR(G264A,I268A) [3] (setting [8]), 4.2±0.8; on SecR(G264A,I268A) [3] (-GppNHp (active state)), 5.6±1.1.
Turning to “human wild type secretin receptor (SecR WT) (from UniProt P47872) G264A; I268A; A359C”, in test [5] (ECL3 series), the other: receptor labeling (% of maximum signal) (% of maximum signal) was 85.
“human wild type secretin receptor (SecR WT) (from UniProt P47872) G264A; I268A; I288C” had an other: receptor labeling (% of maximum signal) (% of maximum signal) in test [5] (ECL2 series) of 68.
“human wild type secretin receptor (SecR WT) (from UniProt P47872) G264A; I268A; L374C”: the other: receptor labeling (% of maximum signal) (% of maximum signal) in test [6] (ECL3 series) was found to be 77; in test [5] (ECL3 series), 88.
With “human wild type secretin receptor (SecR WT) (from UniProt P47872) G264A; I268A; W295C”, the other: receptor labeling (% of maximum signal) (% of maximum signal) in test [5] (ECL2 series) stood at 83; in test [7], 93.
In turn, “human wild type secretin receptor (SecR WT) (from UniProt P47872) G264A; I268A; W296C” displayed an other: receptor labeling (% of maximum signal) (% of maximum signal) in test [6] (ECL2 series) of 68.
